Measurements as given in US8163909B2, “Substituted hydroxyethyl amine compounds as beta-secretase modulators and methods of use” (Amgen Inc., priority 2007, dated 2012).
Like-named read-outs stand apart in the source and are kept apart here.

What was measured:
[1] = human, microsomes, 1 μM, pH 7.4
[2] = rat, microsomes, 1 μM, pH 7.4
CYP2D6 = CYP2D6 (Homo sapiens, UniProt P10635); experiment: CYP2D6 inhibition assay (bufuralol, pooled human liver microsomes)
[3] = Microsomal stability assay, human liver microsomes;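 note: pooled human liver microsomes at 0.25 mg/mL with 1 µM compound and NADPH at 37 °C, pH 7.4, for 30 min, unchanged parent quantified by LC-MS/MS against the 0 min sample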
[4] = biological target: Beta Secretase enzyme (BACE) (Homo sapiens, UniProt P56817); experiment: In vitro enzymatic BACE FRET (fluorescence resonance energy transfer) assay; format: biochemical;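 note: fluorescence read after 1 h with 50 nM quenched peptide substrate spanning the BACE cleavage site, in pH 4.2 acetate buffer containing 10% DMSO and nonionic detergent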
[5] = system: Aβ40 in conditioned medium of cells stably expressing Amyloid Precursor Protein (APP); experiment: In vitro BACE cell-based assay (Aβ40 in conditioned medium, sandwich ELISA); conditions: Homo sapiens;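 note: compounds added as a dilution series, secreted peptide quantified by europium time-resolved fluorescence readout, potency fitted from percent of control versus compound concentration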
CYP3A4 (CYP3A) = CYP3A4 (CYP3A) (Homo sapiens, UniProt P08684); experiment: in vitro; conditions: microsomes, pH 7.4;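 note: inhibition of CYP3A-mediated 1-hydroxymidazolam formation after 10 min incubation with NADPH, quantified by HPLC MS relative to metabolite produced without test compound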
[6] = Microsomal stability assay, rat liver microsomes;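 note: rat liver microsomes (0.25 mg/mL) with about 1 µM compound plus 1 mM NADPH, pH 7.4, 37 °C for 30 min, parent left measured by LC-MS/MS against 0 min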
Abeta peptide = experiment: In vivo inhibition of beta-secretase (reduction of Abeta peptide in brain and cerebrospinal fluid); parameters: species or system rat; conditions: Rattus norvegicus, po, 4 h, orally administered at 30 mg/kg dose, measured after 4 hours;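 note: abeta peptide quantified by sandwich ELISA with electrochemiluminescence readout in rat brain supernatant or CSF, relative to vehicle-dosed control animals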
[7] = 2D6 IC50 (uM), CYP enzyme inhibition
[8] = BACE enzyme assay, read-out: BACE1 FRET assay
[9] = HEK293, HEK cells, read-out: HEK cell assay
[10] = rat cerebrospinal fluid, read-out: percent reduction of abeta peptide in the cerebrospinal fluid of the rat
[11] = 2D6 IC50 (uM), CYP2D6 inhibition
[12] = BACE enzyme assay IC50, read-out: BACE1 FRET assay
[13] = HEK293, HEK cell-based assay IC50, read-out: HEK cell assay
[14] = rat brain, read-out: percent reduction of abeta peptide in the brain of the rat
[15] = BACE enzyme assay, IC50's in uM, read-out: BACE1 FRET assay
[16] = HEK293, HEK cell-based assay, IC50's in uM, read-out: HEK cell assay
[17] = HEK293, cell-based assay, HEK cells, IC50's in uM, read-out: HEK cell assay
[18] = read-out: BACE1 FRET assay (IC50)
[19] = HEK293, HEK cells, read-out: HEK cell assay (IC50)
[20] = 2D6 IC50, CYP enzyme inhibition

CYP2D6, sequence (P10635 whole entry): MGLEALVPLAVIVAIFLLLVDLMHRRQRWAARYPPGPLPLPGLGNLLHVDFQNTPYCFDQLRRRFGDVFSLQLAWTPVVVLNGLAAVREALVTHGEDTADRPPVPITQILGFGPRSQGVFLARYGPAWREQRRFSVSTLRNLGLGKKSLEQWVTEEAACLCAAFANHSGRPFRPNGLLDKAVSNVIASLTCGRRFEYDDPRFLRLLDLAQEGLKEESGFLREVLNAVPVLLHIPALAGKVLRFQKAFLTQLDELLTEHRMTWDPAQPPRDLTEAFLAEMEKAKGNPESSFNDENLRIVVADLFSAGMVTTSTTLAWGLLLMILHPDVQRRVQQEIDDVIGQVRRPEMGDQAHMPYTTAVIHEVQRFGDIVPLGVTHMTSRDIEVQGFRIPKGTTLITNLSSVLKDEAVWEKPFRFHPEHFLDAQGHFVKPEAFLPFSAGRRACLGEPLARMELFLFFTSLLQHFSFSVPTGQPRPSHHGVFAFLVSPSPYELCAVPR
Beta Secretase enzyme (BACE), sequence (P56817 46-501): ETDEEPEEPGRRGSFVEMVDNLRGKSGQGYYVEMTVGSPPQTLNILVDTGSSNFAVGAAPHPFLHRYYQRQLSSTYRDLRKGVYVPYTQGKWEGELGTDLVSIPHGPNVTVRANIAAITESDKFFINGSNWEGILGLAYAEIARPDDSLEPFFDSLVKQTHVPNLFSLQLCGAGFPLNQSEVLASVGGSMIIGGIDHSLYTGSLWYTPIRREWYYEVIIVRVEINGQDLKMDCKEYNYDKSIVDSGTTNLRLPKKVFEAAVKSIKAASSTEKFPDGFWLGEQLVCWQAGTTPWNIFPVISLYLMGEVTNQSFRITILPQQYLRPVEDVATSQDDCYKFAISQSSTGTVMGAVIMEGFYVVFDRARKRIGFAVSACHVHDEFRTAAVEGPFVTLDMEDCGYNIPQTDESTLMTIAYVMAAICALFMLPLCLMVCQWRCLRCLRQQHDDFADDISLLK
CYP3A4 (CYP3A), sequence (P08684 2-503): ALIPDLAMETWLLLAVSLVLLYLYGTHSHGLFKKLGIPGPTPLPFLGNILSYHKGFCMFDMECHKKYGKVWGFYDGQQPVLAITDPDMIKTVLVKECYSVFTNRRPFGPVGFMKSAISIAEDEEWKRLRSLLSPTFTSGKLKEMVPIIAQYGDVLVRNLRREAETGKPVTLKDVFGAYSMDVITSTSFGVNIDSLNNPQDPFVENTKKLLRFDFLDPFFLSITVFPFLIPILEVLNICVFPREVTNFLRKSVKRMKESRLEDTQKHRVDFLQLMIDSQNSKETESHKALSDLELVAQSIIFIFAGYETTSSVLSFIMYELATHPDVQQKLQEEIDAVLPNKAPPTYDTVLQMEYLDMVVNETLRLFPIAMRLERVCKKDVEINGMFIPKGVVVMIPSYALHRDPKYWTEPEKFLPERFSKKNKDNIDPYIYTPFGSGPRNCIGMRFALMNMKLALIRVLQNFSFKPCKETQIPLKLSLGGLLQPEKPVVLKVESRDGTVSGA

SMILES	IC50 (CYP2D6; [7])	HLM ([3]; human liver microsomal data)	IC50 (CYP3A4 (CYP3A))	RLM ([6]; rat liver microsomal data)	inhibition in vivo at 30 mg/kg (Abeta peptide; [10])	HLM ([3]; human liver microsomes)	RLM ([6]; rat liver microsomes)	other results
COCC(=O)N[C@@H](Cc1cccc(-c2nccs2)c1)[C@H](O)CN[C@H]1C[C@]2(CCOC2)Oc2ncc(CC(C)(C)C)cc21 [compound 845]	–	–	–	–	–	–	–	HLM [1]: 64 µL/min/mg; RLM [2]: 152 µL/min/mg
COCC(=O)N[C@@H](Cc1cccc(-c2nccs2)c1)[C@H](O)CN[C@H]1C[C@@]2(CCOC2)Oc2ncc(CC(C)(C)C)cc21 [compound 846, N-((1S,2R)-3-(((3S,4′S)-6′-(2,2-dimethylpropyl)-3′,4,4′,5-tetrahydrospiro[furan-3,2′-pyrano[2,3-b]pyridin]-4′-yl)amino)-2-hydroxy-1-(3-(1,3-thiazol-2-yl)benzyl)propyl)-2-methoxyacetamide]	–	–	–	–	–	–	–	HLM [1]: 82 µL/min/mg; RLM [2]: 128 µL/min/mg
COCC(=O)N[C@@H](Cc1cccc(F)c1)[C@H](O)CN[C@H]1CC2(CCC2)Oc2c1cc(CC(C)(C)C)nc2-n1ccnc1 [Example 504]	2.3 µM	16 µL/min/mg	100 nM	87 µL/min/mg	10 to 80%	–	–	IC50 [4, 8]: 0.014 µM; IC50 [5, 9]: 0.028 µM
CO[C@H](C)C(=O)N[C@@H](Cc1ccc(F)c(-c2nccs2)c1)[C@H](O)CN[C@H]1CC2(CCC2)Oc2ncc(CC(C)(C)C)cc21 [Example 690]	–	–	100 nM	–	–	40 µL/min/mg	53 µL/min/mg	IC50 (CYP2D6; [11]): 0.5 µM; IC50 [4, 12]: 0.011 µM; IC50 [5, 13]: 0.04 µM; inhibition in vivo at 30 mg/kg (Abeta peptide; [14]): 5 to 80%
COCC(=O)N[C@@H](Cc1cc(F)cc(-c2nccs2)c1)[C@H](O)CNC1CC2(CCC2)Oc2ncc(CC(C)(F)F)cc21 (stereo partly drawn) [Example 764, N-((1S,2R)-3-((6′-(2,2-difluoropropyl)-3′,4′-dihydrospiro[cyclobutane-1,2′-pyrano[2,3-b]pyridin]-4′-yl)amino)-1-(3-fluoro-5-(1,3-thiazol-2-yl)benzyl)-2-hydroxypropyl)-2-methoxyacetamide]	0.7 µM	41 µL/min/mg	300 nM	33 µL/min/mg	10 to 80%	–	–	IC50 [4, 15]: 0.011 µM; IC50 [5, 16]: 0.018 µM
CC(C)(C)Cc1cnc2c(c1)[C@@H](NC[C@@H](O)[C@H](Cc1cc(F)cc(-c3nccs3)c1)NC(=O)[C@@H]1CCCO1)CC1(CCC1)O2 [Example 879]	–	96 µL/min/mg	200 nM	77 µL/min/mg	–	–	–	IC50 at 10 min (CYP2D6; human, pooled human liver microsomes, pH 7.4, probe bufuralol, about 5 μM, 2D6 IC50, CYP enzyme inhibition): 600 nM; IC50 [4, 15]: 0.006 µM; IC50 [5, 17]: 0.007 µM; inhibition in vivo at 30 mg/kg (Abeta peptide; [14]): 5 to 80%
CO[C@H](C)C(=O)N[C@@H](Cc1cc(F)cc(F)c1)[C@H](O)CN[C@H]1CC2(CCC2)Oc2c1cc(CC(C)(C)C)nc2-c1cncn1C [Example 652]	–	–	160 nM	–	10 to 80%	26 µL/min/mg	50 µL/min/mg	IC50 (CYP2D6; 2D6 IC50, CYP2D6 inhibition): 2 µM; IC50 [4, 18]: 0.028 µM; IC50 [5, 19]: 0.02 µM
COCC(=O)N[C@@H](Cc1ccc(F)c(-c2nccs2)c1)[C@H](O)CN[C@H]1CC2(CCC2)Oc2ncc(CC(C)(C)F)cc21 [Example 743]	–	–	≤ 30 nM	–	10 to 80%	22 µL/min/mg	31 µL/min/mg	IC50 (CYP2D6; [11]): 0.6 µM; IC50 [4, 12]: 0.016 µM; IC50 [5, 13]: 0.037 µM; inhibition in vivo at 30 mg/kg (Abeta peptide; [14]): ≥ 30%
COCC(=O)N[C@@H](Cc1ccc2c(c1)OCO2)[C@H](O)CN[C@H]1CC2(CCC2)Oc2ncc([C@@H]3CC3(C)C)cc21 [Example 575, N-((1S,2R)-1-(1,3-benzodioxol-5-ylmethyl)-3-(((4′S)-6′-((1R)-2,2-dimethylcyclopropyl)-3′,4′-dihydrospiro[cyclobutane-1,2′-pyrano[2,3-b]pyridin]-4′-yl)amino)-2-hydroxypropyl)-2-methoxyacetamide]	–	–	100 nM	–	10 to 80%	33 µL/min/mg	194 µL/min/mg	IC50 (CYP2D6; 2D6 IC50, CYP2D6 inhibition): 1.5 µM; IC50 [4, 18]: 0.01 µM; IC50 [5, 19]: 0.016 µM
COCC(=O)N[C@@H](Cc1ccncc1)[C@H](O)CN[C@H]1CC2(CCC2)Oc2c(-c3ccncc3)cc(CC(C)C)cc21 [Example 628]	–	–	100 nM	–	10 to 80%	94 µL/min/mg	239 µL/min/mg	IC50 (CYP2D6; 2D6 IC50, CYP2D6 inhibition): 1.9 µM; IC50 [4, 18]: 0.045 µM; IC50 [5, 19]: 0.007 µM
COCC(=O)N[C@@H](Cc1ccccc1)[C@H](O)CN[C@H]1CC2(CCC2)Oc2c1cc(CC(C)(C)C)nc2-c1ccncc1 [Example 541]	2.1 µM	31 µL/min/mg	100 nM	192 µL/min/mg	10 to 80%	–	–	IC50 [4, 8]: 0.02 µM; IC50 [5, 9]: 0.055 µM
C#Cc1cccc(C[C@H](NC(=O)[C@@H](C)OC)[C@H](O)CN[C@H]2CC3(CCC3)Oc3ncc(CC(C)(C)C)cc32)c1 [Example 849, (2R)-N-((1S,2R)-3-(((4′S)-6′-(2,2-dimethylpropyl)-3′,4′-dihydrospiro[cyclobutane-1,2′-pyrano[2,3-b]pyridin]-4′-yl)amino)-1-(3-ethynylbenzyl)-2-hydroxypropyl)-2-methoxypropanamide]	–	18 µL/min/mg	50 nM	43 µL/min/mg	≥ 50%	–	–	IC50 (CYP2D6; [20]): 3.2 µM; IC50 [4, 15]: 0.005 µM; IC50 [5, 17]: 0.008 µM
COCC(=O)N[C@@H](Cc1ccc(F)cc1)[C@H](O)CN[C@H]1CC2(CCC2)Oc2c1cc(CC(C)C)cc2-n1ccnc1 [Example 478]	–	24 µL/min/mg	100 nM	157 µL/min/mg	10 to 80%	–	–	IC50 (CYP2D6; [20]): 2.2 µM; IC50 ([4]; Table 2, read-out: BACE1 FRET assay): 0.056 µM; IC50 ([5]; HEK293, Table 2, HEK cells, read-out: HEK cell assay): 0.068 µM
COCC(=O)N[C@@H](Cc1cccc(C#N)c1)[C@H](O)CN[C@H]1CC2(CCC2)Oc2c(-c3ccncc3)cc(CC(C)(C)C)cc21 [Example 636]	–	–	100 nM	–	10 to 80%	32 µL/min/mg	90 µL/min/mg	IC50 (CYP2D6; 2D6 IC50, CYP2D6 inhibition): 3 µM; IC50 [4, 18]: 0.008 µM; IC50 [5, 19]: 0.005 µM
COCC(=O)N[C@@H](Cc1cc(F)cc(F)c1)[C@H](O)CN[C@H]1CC2(CCC2)Oc2c(-c3ccncc3)cc(CC(C)(C)C)cc21 [Example 488]	1.6 µM	31 µL/min/mg	100 nM	82 µL/min/mg	10 to 80%	–	–	IC50 [4, 8]: 0.009 µM; IC50 [5, 9]: 0.01 µM; inhibition in vivo at 30 mg/kg (Abeta peptide; [14]): 5 to 80%
COC(OC)C(=O)N[C@@H](Cc1cccc(-c2nccs2)c1)[C@H](O)CN[C@H]1CC2(CCC2)Oc2ncc(CC(C)C)cc21 [Example 816, N-((1S,2R)-2-hydroxy-3-(((4′S)-6′-(2-methylpropyl)-3′,4′-dihydrospiro[cyclobutane-1,2′-pyrano[2,3-b]pyridin]-4′-yl)amino)-1-(3-(1,3-thiazol-2-yl)benzyl)propyl)-2,2-dimethoxyacetamide]	0.7 µM	46 µL/min/mg	300 nM	44 µL/min/mg	10 to 80%	–	–	IC50 [4, 15]: 0.008 µM; IC50 [5, 16]: 0.024 µM; inhibition in vivo at 30 mg/kg (Abeta peptide; [14]): 5 to 80%
CC(=O)N[C@@H](Cc1cccc(F)c1)[C@H](O)CN[C@H]1CC2(CCC2)Oc2c1cc(CC(C)(C)C)nc2-n1ccnc1 [Example 506]	2.2 µM	14 µL/min/mg	100 nM	61 µL/min/mg	10 to 80%	–	–	IC50 [4, 8]: 0.021 µM; IC50 [5, 9]: 0.02 µM
